Results taken from ChEMBL document CHEMBL6074662, “Antibacterial, Antibiofilm, and Anti-inflammatory Effects of a Novel Thrombin-Derived Peptide in Sepsis Models: Insights into Underlying Mechanisms” (J Med Chem, 2024).
The source made the active and inactive calls. The rule behind the calls is not given here.

Key:
[1] = Proteolytic stability of compound assessed as trypsin (unknown origin)-mediated drug degradation at 150 uM incubated for 24 hrs by RP-HPLC analysis; assay type: ADME; settings: human
Staphylococcus aureus [2] = experiment: Bactericidal activity against methicillin-resistant Staphylococcus aureus CCARM 3089 at 0.5 to 2 uM incubated for 12 hrs by time-kill assay; assay type: functional, organism-based; settings: dose 0.5-2 µM
Escherichia coli = experiment: Antibacterial activity against Escherichia coli KCTC 1682 assessed as zone of clearance incubated for 4 hrs in presence of pepsin by radical diffusion assay; assay type: functional, organism-based
Staphylococcus aureus [3] = experiment: Synergistic bactericidal activity against methicillin-resistant Staphylococcus aureus CCARM 3089 at 0.5 to 2 uM incubated for 12 hrs in presence of oxacillin by time-kill assay; assay type: functional, organism-based; settings: dose 0.5-2 µM
Mus musculus [4] = experiment: Antiseptic activity in sepsis shock ICR mouse model infected with carbapenem-resistant Acinetobacter baumannii assessed as reduction in serum IL-6 level at 1 mg/kg, ip pretreated with compound for 3 hrs followed by bacterial infection measured after 16 hrs relative to control; assay type: functional; set-up: scale not given: the % may be the effect or the level left; settings: time 19 hrs
[5] = biological target: T1, Toll-like receptor 4 (Mus musculus) (UniProt Q9QUK6); experiment: Inhibition of LPS-induced TLR4 activation in mouse RAW264.7 cells assessed as decrease in p38 MAPK phosphorylation at 2 uM pretreated for 1 hr followed by LPS treatment for 30 mins by Western blot analysis relative to control; assay type: cell-based; settings: time 90.0 min
T1 sequence (whole entry): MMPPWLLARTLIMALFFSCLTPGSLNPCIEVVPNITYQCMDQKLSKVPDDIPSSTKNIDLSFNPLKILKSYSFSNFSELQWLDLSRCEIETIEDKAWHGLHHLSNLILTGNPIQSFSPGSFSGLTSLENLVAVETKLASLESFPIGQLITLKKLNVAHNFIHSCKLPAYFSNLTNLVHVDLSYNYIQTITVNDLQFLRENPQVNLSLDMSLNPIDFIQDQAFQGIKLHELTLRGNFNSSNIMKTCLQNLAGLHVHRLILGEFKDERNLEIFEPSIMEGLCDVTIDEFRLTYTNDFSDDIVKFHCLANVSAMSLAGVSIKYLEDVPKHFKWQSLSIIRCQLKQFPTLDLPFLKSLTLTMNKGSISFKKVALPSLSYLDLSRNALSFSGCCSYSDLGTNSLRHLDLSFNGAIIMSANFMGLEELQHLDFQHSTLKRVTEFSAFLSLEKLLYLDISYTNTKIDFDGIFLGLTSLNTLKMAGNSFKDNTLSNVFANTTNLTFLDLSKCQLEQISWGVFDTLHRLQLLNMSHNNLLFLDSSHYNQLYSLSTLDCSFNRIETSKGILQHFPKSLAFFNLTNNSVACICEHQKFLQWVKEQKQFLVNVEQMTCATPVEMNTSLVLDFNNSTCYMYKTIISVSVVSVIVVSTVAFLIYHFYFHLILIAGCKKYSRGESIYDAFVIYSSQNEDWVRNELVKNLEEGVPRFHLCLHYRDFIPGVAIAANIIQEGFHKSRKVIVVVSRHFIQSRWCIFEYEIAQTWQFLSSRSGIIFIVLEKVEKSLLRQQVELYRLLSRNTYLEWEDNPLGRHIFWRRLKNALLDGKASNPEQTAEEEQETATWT

Mus musculus [6] = experiment: (§1) Antiseptic activity in sepsis shock ICR mouse model infected with carbapenem-resistant Acinetobacter baumannii assessed as reduction in bacterial count in lungs at 1 mg/kg, ip pre-infected with bacteria followed by compound administration 1 hr post-infection measured after 16 hrs relative to control; assay type: functional; set-up: scale not given: the % may be the effect or the level left
Lipopolysaccharide (LPS) [7] = experiment: Displacement of BODIPY-TR-cadaverine from Escherichia coli 0111:B4 LPS at 8 uM incubated for 30 mins by fluorescence based assay relative to control
Mus musculus [8] = experiment: Antiseptic activity in sepsis shock ICR mouse model infected with carbapenem-resistant Acinetobacter baumannii assessed as decrease in IL-6 level in serum at 1 mg/kg, ip pretreated with compound for 1 hr followed by bacterial infection measured after 16 hrs relative to control; assay type: functional; set-up: scale not given: the % may be the effect or the level left; settings: time 17 hrs
RAW264.7 [9] = experiment: Inhibition of cell binding activity of FITC-labeled LPS to surface receptors of mouse RAW264.7 cells at 8 uM incubated for 1 hr by flow cytometry; assay type: cell-based
Lipopolysaccharide (LPS) [10] = experiment: Displacement of BODIPY-TR-cadaverine from cell-free LPS (unknown origin) at 8 uM incubated for 30 mins by fluorescence based assay relative to control
[11] = Effect on secondary structure of drug in TFE assessed as formation of left-handed alpha-helical conformation at 150 uM by CD analysis; assay type: physicochemical
Lipopolysaccharide (LPS) [12] = experiment: Displacement of BODIPY-TR-cadaverine from Escherichia coli 0111:B4 LPS incubated for 30 mins by fluorescence based assay; settings: dose <= 32.0 µM
Acinetobacter baumannii [13] = experiment: Antibacterial activity against carbapenem-resistant Acinetobacter baumannii-induced sepsis shock in ICR mouse model assessed as bacterial growth inhibition in liver at 1 mg/kg, ip pretreated with compound for 1 hr followed by bacterial infection measured after 16 hrs relative to control; assay type: functional; settings: time 17 hrs
Acinetobacter baumannii [14] = experiment: Antibacterial activity against carbapenem-resistant Acinetobacter baumannii-induced sepsis shock in ICR mouse model assessed as bacterial growth inhibition in kidney at 1 mg/kg, ip pretreated with compound for 1 hr followed by bacterial infection measured after 16 hrs relative to control; assay type: functional; settings: time 17 hrs
[15] = biological target: Toll-like receptor 4 (Homo sapiens) (UniProt O00206); experiment: Inhibition of LPS-induced human TLR4 activation expressed in HEK-Blue hTLR4 cells assessed as decrease in SEAP activity at 25 uM pretreated for 1 hr followed by LPS treatment for 16 hrs by absorbance based assay relative to control; assay type: cell-based; settings: time 17.0 hrs
Toll-like receptor 4 (Homo sapiens), sequence (O00206 whole entry): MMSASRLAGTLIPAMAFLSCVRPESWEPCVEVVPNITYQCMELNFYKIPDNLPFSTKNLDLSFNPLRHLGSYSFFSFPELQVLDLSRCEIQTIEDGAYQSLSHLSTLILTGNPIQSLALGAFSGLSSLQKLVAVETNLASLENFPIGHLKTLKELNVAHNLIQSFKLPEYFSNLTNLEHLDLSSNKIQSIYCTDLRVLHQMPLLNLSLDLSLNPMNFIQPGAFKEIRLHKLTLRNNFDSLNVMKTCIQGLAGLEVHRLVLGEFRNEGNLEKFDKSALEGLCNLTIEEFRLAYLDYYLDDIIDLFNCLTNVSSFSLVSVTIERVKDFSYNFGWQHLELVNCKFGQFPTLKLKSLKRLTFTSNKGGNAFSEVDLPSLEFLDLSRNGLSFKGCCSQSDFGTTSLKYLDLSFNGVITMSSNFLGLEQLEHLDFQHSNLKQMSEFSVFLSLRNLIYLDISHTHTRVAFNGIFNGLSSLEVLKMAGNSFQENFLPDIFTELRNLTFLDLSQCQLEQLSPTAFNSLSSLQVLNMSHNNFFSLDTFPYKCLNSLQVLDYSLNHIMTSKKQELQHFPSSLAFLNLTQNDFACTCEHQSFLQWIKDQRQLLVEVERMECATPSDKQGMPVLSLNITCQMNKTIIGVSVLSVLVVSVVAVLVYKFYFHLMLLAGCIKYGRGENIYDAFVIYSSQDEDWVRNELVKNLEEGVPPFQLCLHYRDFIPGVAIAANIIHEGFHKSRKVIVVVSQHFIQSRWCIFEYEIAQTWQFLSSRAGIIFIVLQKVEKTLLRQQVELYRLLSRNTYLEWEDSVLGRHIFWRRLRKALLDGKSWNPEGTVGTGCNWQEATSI

RAW264.7 [16] = experiment: Anti-inflammatory activity in mouse RAW264.7 cells assessed as decrease in LPS-induced NO production upto 10 uM pretreated for 1 hr followed by LPS treatment for 16 hrs by Griess assay; assay type: functional, cell-based; settings: time 17.0 hrs
Mus musculus [17] = experiment: as §1, with “3 hrs” for “1 hr”; assay type: functional; set-up: scale not given: the % may be the effect or the level left
Mus musculus [18] = experiment: Antiseptic activity in sepsis shock ICR mouse model infected with carbapenem-resistant Acinetobacter baumannii assessed as decrease in IL-1beta level in serum at 1 mg/kg, ip pretreated with compound for 1 hr followed by bacterial infection measured after 16 hrs relative to control; assay type: functional; set-up: scale not given: the % may be the effect or the level left; settings: time 17 hrs
Mus musculus [19] = experiment: as §1, with “kidney” for “lungs”; assay type: functional; set-up: scale not given: the % may be the effect or the level left
Mus musculus [20] = experiment: Antiseptic activity in sepsis shock ICR mouse model infected with carbapenem-resistant Acinetobacter baumannii assessed as reduction in bacterial count in liver at 1 mg/kg, ip pre-infected with bacteria followed by compound administration 1 hr post-infection measured after 16 hrs relative to control; assay type: functional; set-up: scale not given: the % may be the effect or the level left
Lipopolysaccharide (LPS) [21] = experiment: Displacement of BODIPY-TR-cadaverine from cell-free LPS (unknown origin) incubated for 30 mins by fluorescence based assay; settings: dose <= 32.0 µM
Mus musculus [22] = experiment: Antiseptic activity in sepsis shock ICR mouse model infected with carbapenem-resistant Acinetobacter baumannii assessed as reduction in bacterial count in lungs at 1 mg/kg, ip pretreated with compound for 1 hr followed by bacterial infection measured after 16 hrs relative to control; assay type: functional; set-up: scale not given: the % may be the effect or the level left; settings: time 17 hrs

## H-GVFRLKKWIKKVIKKWGK-NH2
[1]
  Stability: Unstable
Staphylococcus aureus [2]
  Activity: inactive
Escherichia coli
  Activity: inactive
Staphylococcus aureus [3]
  Activity: Active

## H-GVFRLKKWLKKVKKWGK-NH2
Mus musculus [4]
  Activity: 99.9%
[5]
  inhibition: 63%
Mus musculus [6]
  Activity: 92.3%
Lipopolysaccharide (LPS) [7]
  Activity: 38%
Mus musculus [8]
  Activity: 86.3%
RAW264.7 [9]
  inhibition: Active; Activity Comparable To Ll-37 And Pmb
Lipopolysaccharide (LPS) [10]
  Activity: 56%
[11]
  Activity: Active
Lipopolysaccharide (LPS) [12]
  Activity: Dose-dependent-effect; Activity Similar To Ll-37
Acinetobacter baumannii [13]
  inhibition in vivo at 1 mg/kg: 95.7%
Acinetobacter baumannii [14]
  inhibition in vivo at 1 mg/kg: 88.1%
[15]
  inhibition: 100%
RAW264.7 [16]
  Activity: Active
Mus musculus [17]
  Activity: 25%
Mus musculus [18]
  Activity: 68.7%
Mus musculus [19]
  Activity: 96.7%
Mus musculus [20]
  Activity: 97.7%
Lipopolysaccharide (LPS) [21]
  Activity: Dose-dependent-effect; Activity Similar To Ll-37
Mus musculus [22]
  Activity: 99%
